# Results as given in patent US20220304978A1, “INHIBITING MESANGIAL CELL ACTIVATION” (Chinook Therapeutics, Inc., priority 2019, published 2022).
# Test system: kidney tissue of g-ddY mice
# Assay: RNA-seq differential gene expression in kidney tissue of g-ddY mice
# Format: in vivo, mouse
# Details: 10 mg/kg/day vs control
# Description: RNA isolation and sequencing libraries were generated using standard protocols. Sequencing was performed using an Illumina NextSeq500 using manufacturer's instructions with a read length of 75 bp and a read depth of 30 million. Raw data was assembled to FASTQ files. Following QC analysis, high quality sequencing reads (e.g., reads with a Phred quality score >36) were aligned to the mouse reference genome (GRCm38-mm10) using the default parameters of the align algorithm and transcript count tables of each library was generated using the default parameters of the featureCounts algorithm of the RSubread package (Liao Y, Smyth GK, Shi W, 2019). High quality sequencing reads mapped to 27,129 genes. Following additional QC of low count filtering (i.e. transcripts <10 counts across all samples), 16,207 genes were identified and used for further analysis. The remaining sequencing read counts of the included 16,207 genes were normalized to library size, log-transformed, and were quantified as counts per million (CPM). Select RNA-seq counts were validated using qPCR. Sequencing read counts (CPM) were used for identification of differential gene expression between specified populations using the quasi-likelihood methodology of the edgeR package. […] MA plots were generated using edgeR. Heatmaps and other plots were generated using the gplots and ggplot2 package.
# [1] = inflammatory response signaling
structure (smiles),measurement,setting,value
"CCCCN(CCCC)C(=O)CN1C[C@H](c2ccc3c(c2)OCO3)[C@@H](C(=O)O)[C@@H]1c1ccc(OC)cc1 [atrasentan, (2R,3R,4S)-4-(1,3-benzodioxol-5-yl)-1-[2-(dibutylamino)-2-oxoethyl]-2-(4-methoxyphenyl)pyrrolidine-3-carboxylic acid]",Cntfr logFC,IL6 signaling,−0.8669
same,Csf1 logFC,IL6 signaling,−0.8332
same,Il1b logFC,IL6 signaling,−1.684
same,Il1r1 logFC,IL6 signaling,−0.2988
same,Il2ra logFC,IL6 signaling,−0.8599
same,Map3k8 logFC,IL6 signaling,−0.3558
same,Ackr3 logFC,NF-kB signaling,0.2851
same,Atf3 logFC,NF-kB signaling,−1.514
same,Btg1 logFC,NF-kB signaling,−0.3745
same,Btg2 logFC,NF-kB signaling,−0.424
same,Ccl20 logFC,NF-kB signaling,−1.273
same,Ccnd1 logFC,NF-kB signaling,0.453
same,Cdkn1a logFC,NF-kB signaling,0.5583
same,Csf1 logFC,NF-kB signaling,−0.8332
same,Cxcl2 logFC,NF-kB signaling,−1.19
same,Dnajb4 logFC,NF-kB signaling,−0.3683
same,Edn1 logFC,NF-kB signaling,−1.006
same,Efna1 logFC,NF-kB signaling,0.6938
same,Ehd1 logFC,NF-kB signaling,0.2563
same,F3 logFC,NF-kB signaling,−0.4963
same,Fosl2 logFC,NF-kB signaling,−0.8662
same,Id2 logFC,NF-kB signaling,0.1663
same,Ifit2 logFC,NF-kB signaling,−0.471
same,Il1b logFC,NF-kB signaling,−1.684
same,Jag1 logFC,NF-kB signaling,−0.4199
same,Klf2 logFC,NF-kB signaling,−0.4894
same,Klf4 logFC,NF-kB signaling,−0.5493
same,Map3k8 logFC,NF-kB signaling,−0.3558
same,Nfat5 logFC,NF-kB signaling,−0.3118
same,Nfkb1 logFC,NF-kB signaling,−0.3424
same,Nfkbia logFC,NF-kB signaling,−0.5525
same,Nr4a2 logFC,NF-kB signaling,−1.3802
same,Nr4a3 logFC,NF-kB signaling,−1.143
same,Per1 logFC,NF-kB signaling,−0.4162
same,Pfkfb3 logFC,NF-kB signaling,−1.166
same,Pnrcl logFC,NF-kB signaling,0.2635
same,Rel logFC,NF-kB signaling,−0.7218
same,Rhob logFC,NF-kB signaling,−0.533
same,Serpine1 logFC,NF-kB signaling,−0.7169
same,Snn logFC,NF-kB signaling,0.3517
same,Spsb1 logFC,NF-kB signaling,−0.6157
same,Tnfaip8 logFC,NF-kB signaling,0.273
same,Traf1 logFC,NF-kB signaling,−0.5182
same,Trib1 logFC,NF-kB signaling,−0.6481
same,Zbtb10 logFC,NF-kB signaling,−0.2335
same,Hras logFC,PDGF signaling,0.1887
same,Map3k1 logFC,PDGF signaling,−0.3825
same,Nfkb1 logFC,PDGF signaling,−0.3424
same,Nfkbia logFC,PDGF signaling,−0.5525
same,Pdgfb logFC,PDGF signaling,−0.3414
same,Pdgfra logFC,PDGF signaling,−0.51
same,Pik3cg logFC,PDGF signaling,−0.5882
same,Pik3r1 logFC,PDGF signaling,−0.4253
same,Pla2g4a logFC,PDGF signaling,−0.6999
same,Tiam1 logFC,PDGF signaling,−0.7456
same,Arid4a logFC,cell proliferation signaling,−0.2777
same,Atrx logFC,cell proliferation signaling,−0.2463
same,Bcar1 logFC,cell proliferation signaling,0.3379
same,Ccdc88a logFC,cell proliferation signaling,−0.5602
same,Ccnd1 logFC,cell proliferation signaling,0.453
same,Cep192 logFC,cell proliferation signaling,−0.4211
same,Cntrl logFC,cell proliferation signaling,−0.289
same,Dmd logFC,cell proliferation signaling,−0.3335
same,Epb41l2 logFC,cell proliferation signaling,−0.4376
same,Fgd6 logFC,cell proliferation signaling,−0.2369
same,Flna logFC,cell proliferation signaling,−0.4162
same,Itsn1 logFC,cell proliferation signaling,−0.2276
same,Kmt5a logFC,cell proliferation signaling,0.2601
same,Meis1 logFC,cell proliferation signaling,−0.2507
same,Myh9 logFC,cell proliferation signaling,−0.2093
same,Myh10 logFC,cell proliferation signaling,−0.3068
same,Myo1e logFC,cell proliferation signaling,−0.2349
same,Nin logFC,cell proliferation signaling,−0.3393
same,Ophn1 logFC,cell proliferation signaling,−0.4999
same,Rapgef5 logFC,cell proliferation signaling,−0.2732
same,Rhot2 logFC,cell proliferation signaling,0.4727
same,Slc7a1 logFC,cell proliferation signaling,−0.396
same,Slc12a2 logFC,cell proliferation signaling,−0.2507
same,Slc38a1 logFC,cell proliferation signaling,−0.4971
same,Smc3 logFC,cell proliferation signaling,−0.2304
same,Sorbs2 logFC,cell proliferation signaling,−0.3958
same,Tiam1 logFC,cell proliferation signaling,−0.7456
same,Tuba4a logFC,cell proliferation signaling,0.2738
same,Vcl logFC,cell proliferation signaling,−0.2001
same,Ythdc1 logFC,cell proliferation signaling,−0.1936
same,Btg2 logFC,[1],−0.424
same,Ccl20 logFC,[1],−1.273
same,Cdkn1a logFC,[1],0.5583
same,Chst2 logFC,[1],−0.5212
same,Csf1 logFC,[1],−0.8332
same,Edn1 logFC,[1],−1.006
same,Eif2ak2 logFC,[1],−0.272
same,F3 logFC,[1],−0.4963
same,Gabbr1 logFC,[1],−0.02473
same,Hpn logFC,[1],0.4007
same,Il1b logFC,[1],−1.684
same,Il1r1 logFC,[1],−0.2988
same,Ly6e logFC,[1],0.1666
same,Nfkb1 logFC,[1],−0.3424
same,Nfkbia logFC,[1],−0.5525
same,Rnf144b logFC,[1],−0.7108
same,Ros1 logFC,[1],−2.078
same,Serpine1 logFC,[1],−0.7169
same,Slc4a4 logFC,[1],0.5123
same,Slc7a1 logFC,[1],−0.396
same,Slc7a2 logFC,[1],−0.8315
same,Slc11a2 logFC,[1],0.3192
same,Ahnak logFC,mesangial cell signature,−0.5756
same,Akap12 logFC,mesangial cell signature,−0.2687
same,Akt3 logFC,mesangial cell signature,−0.3863
same,Aldob logFC,mesangial cell signature,0.4194
